One experiment deals with T1, PDGF receptor (PDGFR) (Homo sapiens, UniProt P09619).
T1 construct: the PDGF receptor (PDGFR) in PASMC (pulmonary aortic smooth muscle cells); host or cells: PASMC (pulmonary aortic smooth muscle cells)
In words: PDGF-induced PDGFR phosphorylation in PASMC. It counts as cell-based. The protocol:
(§1) Cell culture. Human umbilical vein endothelial cells (HUVEC) and pulmonary aortic smooth muscle cells (PASMC) were obtained from Clonetics and maintained in endothelial cell basal medium-2 (EBM-2; Clonetics) and smooth muscle medium-2 (SmGM-2; Clonetics), respectively. Cells were cultured at 37° C. under a humidified atmosphere containing 5% CO2. For experimental purposes, cells were plated in 8 100-mm plastic dishes at 5,000 cells/cm^2 and were grown to confluence before overnight serum starvation. Cells were treated with vehicle or with a PCK3145 derivative diluted in 0.1 N NaOH, and stimulated with 50-100 ng/ml VEGF or PDGF, with 10 ng/ml of bFGF (basic fibroblast growth factor) or with 1 μM S1P (sphingosine-1-phosphate).
Immunoprecipitation and immunoblotting procedures. After treatment, cells were washed once with phosphate-buffered saline (PBS) containing 1 mM sodium orthovanadate and were incubated in the same medium for 1 h at 4° C. […] The cells were then scraped from the culture dishes and the resulting lysates were clarified by centrifugation at 10,000 g for 10 min; Protein concentrations were determined using the micro bicinchoninic acid method (Pierce). […] The immunoreactive bands were quantified by scanning densitometry (Molecular Dynamics). […]

A further experiment concerns ERK. In words: Induced ERK phosphorylation in HUVEC (Western blot). It counts as cell-based, Human. The protocol:
as §1
Immunoprecipitation and immunoblotting procedures. After treatment, cells were washed once with phosphate-buffered saline (PBS) containing 1 mM sodium orthovanadate and were incubated in the same medium for 1 h at 4° C. The cells were solubilized on ice in lysis buffer (150 mM NaCl, 10 mM Tris-HCl, pH 7.4, 1 mM EDTA, 1 mM EGTA, 0.5% Nonidet P-40, 1% Triton X-100) containing 1 mM sodium orthovanadate. The cells were then scraped from the culture dishes and the resulting lysates were clarified by centrifugation at 10,000 g for 10 min; Protein concentrations were determined using the micro bicinchoninic acid method (Pierce). For immunoprecipitation studies, lysates were clarified by a 1 h incubation at 4° C. with a mixture of Protein A/Protein G Sepharose beads. After removal of the Sepharose beads by low-speed centrifugation, identical amounts of protein (200 μg) from each sample were transferred to fresh tubes and incubated in lysis buffer overnight at 4° C. in the presence of 2 μg/ml of specific antibodies. Immunocomplexes were collected by incubating the mixture with 25 μl (50% suspension) of Protein A- (rabbit primary antibody) or Protein G- (mouse primary antibody) Sepharose beads, for 2 h. Nonspecifically-bound material was removed by washing the beads three times in 1 ml of lysis buffer containing 1 mM sodium orthovanadate, and bound material was solubilized in 25 μl of two-fold concentrated Laemmli sample buffer (125 mM Tris-HCl (pH 6.8), 20% glycerol, 4% SDS, 10% β-mercaptoethanol, and 0.00125% bromphenol blue), boiled 5 min, and resolved by SDS-PAGE. The proteins were transferred onto polyvinylidene difluoride (PVDF) membranes, blocked 1 h at room temperature with Tris-buffered saline/Tween 20 (147 mM NaCl, 20 mM Tris/HCl, pH 7.5, and 0.1% Tween 20) containing 2% bovine serum albumin and incubated overnight at 4° C. with primary antibody. […] The immunoreactive bands were quantified by scanning densitometry (Molecular Dynamics).
VEGF is a strong activator of ERKs (Extracellular-signal-Regulated protein Kinases) 1 and 2 via VEGF receptor 2. In order to test the ability of the PCK3145 derivative in potentially antagonizing VEGF-mediated ERK phosphorylation, serum-starved quiescent endothelial cells (HUVEC) were incubated with vehicle (phosphate-buffered saline (PBS) pH 7.4) or PCK3145 derivative (300 μg/ml) for 24 h and then stimulated with VEGF, bFGF (basic Fibroblast Growth Factor) or S1P (sphingosine-1-phosphate). Cells were washed with PBS containing NaF/Na3VO4 and incubated in the same medium buffer for 1 h at 4° C. The cells were scraped from the culture dishes and the resulting lysates clarified by centrifugation. Western blotting and immunodetection using anti-phosphoERK and anti-ERK antibodies was then performed.
In general terms: In western blotting, separated proteins are transferred to a membrane and probed.

For the next experiment, the system named is MT1-MMP. As to the kind of experiment: MT1-MMP expression in U-87 cells. It counts as cell-based. The settings on record: 300 ug/ml.

Where no end group is shown, it is not given here.

T1 sequence (P09619 33-1106): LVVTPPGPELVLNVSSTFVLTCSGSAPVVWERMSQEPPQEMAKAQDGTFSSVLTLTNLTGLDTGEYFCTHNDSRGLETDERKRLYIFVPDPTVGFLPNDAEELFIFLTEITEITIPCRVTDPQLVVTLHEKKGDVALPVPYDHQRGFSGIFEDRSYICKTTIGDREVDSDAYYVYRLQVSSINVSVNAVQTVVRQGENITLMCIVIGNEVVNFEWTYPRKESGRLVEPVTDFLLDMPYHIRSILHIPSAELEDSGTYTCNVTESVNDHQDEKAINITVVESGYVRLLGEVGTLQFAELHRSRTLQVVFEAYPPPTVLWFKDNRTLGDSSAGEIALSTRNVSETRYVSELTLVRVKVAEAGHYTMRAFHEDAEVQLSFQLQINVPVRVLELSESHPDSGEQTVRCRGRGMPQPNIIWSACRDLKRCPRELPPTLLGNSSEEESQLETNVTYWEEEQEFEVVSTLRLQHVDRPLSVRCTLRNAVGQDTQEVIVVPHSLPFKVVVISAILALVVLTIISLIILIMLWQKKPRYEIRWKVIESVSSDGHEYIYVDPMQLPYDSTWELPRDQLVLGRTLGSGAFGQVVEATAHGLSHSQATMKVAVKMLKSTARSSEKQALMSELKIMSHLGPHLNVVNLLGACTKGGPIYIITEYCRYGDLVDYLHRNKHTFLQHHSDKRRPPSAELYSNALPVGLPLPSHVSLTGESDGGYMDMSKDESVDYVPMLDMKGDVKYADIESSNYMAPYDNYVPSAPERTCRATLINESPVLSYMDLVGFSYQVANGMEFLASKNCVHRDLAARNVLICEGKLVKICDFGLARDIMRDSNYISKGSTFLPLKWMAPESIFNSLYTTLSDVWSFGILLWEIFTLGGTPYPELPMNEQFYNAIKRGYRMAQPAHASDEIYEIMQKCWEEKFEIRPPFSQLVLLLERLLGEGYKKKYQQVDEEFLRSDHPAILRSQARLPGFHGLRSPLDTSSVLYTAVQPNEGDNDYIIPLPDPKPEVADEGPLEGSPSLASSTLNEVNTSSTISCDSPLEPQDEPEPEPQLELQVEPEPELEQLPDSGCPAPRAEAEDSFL

“EWQTDNCETCTCYET (cysteine pairing not given here) [PCK3145 derivative, PCK3145 derivative with acetylaminomethyl groups on the three cysteines]”: the “PDGFR phosphorylation induced by PDGF” value with PDGF receptor (PDGFR) is reported as “inhibition”. In addition, the “extent of ERK phosphorylation by VEGF, dose-response” value in the experiment on ERK was “gradually inhibit”. In the experiment on ERK (300 μg/ml, 24 h), the “ERK phosphorylation induced by S1P” value is listed as “not that induced by bFGF or S1P”, the “ERK phosphorylation induced by VEGF” value is listed as “specific inhibitory effect” and the “total amount of ERK” value is listed as “unaffected”. Moreover, the “VEGF-induced ERK phosphorylation, time-course” value in the experiment on ERK (3 and 24 hrs) was “necessity of a long term action”. The MT1-MMP expression entry in the experiment on MT1-MMP was “slight increase”.

The record behind these values is patent publication US20080200393A1, “Method and Composition For Treating Angiogenesis and For Preventing Cancer Progression and Metastasis Comprising a Prostate Secretory Protein (Psp94) Family Member” (Ambrillia Biopharma Inc., priority 2004, published 2008).
